In patent publication US20150376216A1, “SUGAR-ANALOG PHOSPHORUS-CONTAINING HETEROCYCLES HAVING AN ANTI-METASTATIC ACTIVITY” (CENTRE NATIONAL DE LA RECHERCHE SCIENTIRIQUE, priority 2013, published 2015):
Read-outs that look alike come from different tables or passages of the source. One block for each compound: values may come before it.

Assays:
SNB75 human GBM line = assay: Boyden chamber migration test, SNB75; assay type: cell-based; conditions: for Ki: SNB75, 24 hours, read-out: Inhibition constant Ki, migration
Experimental: (§1) The effects of compounds 3.48a, 4.2a and 5.6d on the migration of cancer cells (human glioblastoma line SNB75 or primary culture of human glioblastoma Gli4F1, on the one hand, and MDAMB 435 and A431 on the other hand), were determined by performing a standard migration test in a Boyden chamber (treatment of the cells for 24 hours).
(§2) For this test, the compounds were dissolved in vitro and used in culture in 0.3% of DMSO. The interior of the inserts was covered with the extracellular matrix protein studied (laminin-1, vitronectin or fibronectin). The cells pretreated at various concentrations and untreated (controls) were deposited in the inserts covered with said protein at a rate of 50 000 cells/500 μl/insert in a medium containing 0.1% of BSA (bovine serum albumin).
(§3) 500 μl of medium containing 10% fetal calf serum were then placed in each well of a Companion plate so as to allow the formation of a chemotactic gradient across the porous membrane. After 24 hours of migration in the incubator at 37° C., the supernatent was removed and the inserts rinsed with PBS on each face. The cells were counted with a microscope (Zeiss Axiophot, magnification ×200). This gives a percentage of migration relative to the untreated cells.
(§4) Table 2 below gives, for compound 3.48a, the values for the inhibition constants (Ki) for the migration of a human GBM line (SNB75), of GBM stem cell lines (Gli4, Gli7) and of a breast cancer line MDAMB231, in a Boyden chamber, on various extracellular matrix protein supports. Tables 3 and 4 below give, for compounds 4.2a and 5.6d, the values of the inhibition constants (Ki) for the migration of a melanoma line (MDAMB-435) or of an epidermoid cancer line (A431), in a Boyden chamber, on various extracellular matrix protein supports. The inhibitory effect depends on the line and the stem cells used, but also on the extracellular matrix protein support used.

Gli4 GBM stem cells = assay: Boyden chamber migration test, Gli4; assay type: cell-based, human; conditions: 24 hours, read-out: Inhibition constant Ki, migration
Experimental: as §1, §2, §3, §4

Gli7 GBM stem cells = assay: Boyden chamber migration test, Gli7; assay type: cell-based, human; conditions: 24 hours, read-out: Inhibition constant Ki, migration
Experimental: as §1, §2, §3, §4

GBM line C6 = assay: Boyden chamber migration test, C6; assay type: cell-based, rat; conditions: various extracellular matrix substrates
Acute in vivo toxicity = conditions: healthy mice; 50, 25, 10, 5 and 1 mg/kg; maximum dose 50 mg/kg
Experimental: Studies of the acute toxicity of compounds 3.48a and 4.2a were performed on healthy mice for a concentration range of 50, 25, 10, 5 and 1 mg/kg.

SNB75 cells = assay: SNB75 subcutaneous model; assay type: in vivo, mice
Experimental: Nude female mice 4-5 weeks old with an average weight of […], supplied by the R. Janvier breeding center, were used. The mice were kept in a pathogen-free environment and with food and water present ad libitum. The experiments were commenced after one week of acclimatizing the mice to their new environment.
A suspension of 5×10^6 SNB75 cells in 100 μl of sterile PBS (phosphate-buffered saline, provided by Fisher) was injected into each mouse (subcutaneous administration without anesthesia). Once the mice presented tumors with volumes of between […], groups were formed so that each of them contained an equivalent number of large, medium and small tumors. The protocol was conducted with five groups of seven mice. The five groups of mice were treated using one of the five formulations described below:
Group A: Treatment by injection of 100 μl of NaCl (control N° 1).
Group B: Treatment with compound 3.48a at a rate of 10 mg/kg with volumes of 100 to 150 μl of formulation 2 according to the weight of the mice.
Group C: Treatment with compound 3.48a at a rate of 5 mg/kg with volumes of 100 to 150 μl of formulation 2 according to the weight of the mice.
Group D: Treatment with temozolomide at a rate of 20 mg/kg with volumes of 100 to 150 μl according to the weight of the mice. Temozolomide is a comparative anticancer active principle sold under the name Temodal by the laboratory Schering Plough. It is indicated for treating glioblastoma multiforme.
Group E: Treatment by injection of 100 to 150 μl according to the weight of the mice of formulation 2 not containing compound 3.48a (control N° 2).
Each batch was treated by intravenous injection into the caudal vein of 100 to 150 μl of solution (precision syringe and G25X1 needle ultrafine wall, VWR). Three injections per week for four weeks were performed. The mice were weighed at each injection. The sizes of the tumors were measured twice a week for a period of four weeks. The mice were sacrificed after four weeks and the tumors and organs (liver, kidney, spleen, brain, intestine, heart, muscles) were removed. A histological analysis was performed on these organs.

Gli4 cells = assay: Gli4 intracranial model; assay type: in vivo, mice
Experimental: 2×10^5 Gli4 cells were injected into a group of mice (right striatal injection, injection coordinates: bregma 0 L-L: L: −1.5 mm P: −3.5-2.5). The mice were immediately treated for four weeks at a rate of three injections at 10 mg/kg of compound 3.48a per week (formulation 1, group B) or using 100 μl of NaCl according to the same treatment protocol (group A) and sacrificed after ten weeks.
In the group of control mice (group A), dispersed Gli4 cells are observed, which migrated along the corpus callosum and passed into the other hemisphere. […] This migration reflects migration along the white matter, as observed in human glioblastoma multiformes (dispersion as an intra-fascicular growth along the white matter).

[1] = Solubility / formulation behaviour; assay type: physicochemical
Experimental: The following two formulations are particularly suited to compounds 3.48a and 4.2a and allow their in vivo administration, at concentrations of about 20-100 mg/kg, intravenously: […]

A431 line = assay: MTT antiproliferative test, A431; assay type: cell-based, human; conditions: A-431, read-out: IC50, inhibition of proliferation
Experimental: (§5) The lines MDAMB-435 and A431 are seeded at a density of 3000 cells per well in 96-well plates. After 24 hours, compounds 4.2a and 5.6d resuspended in 100% DMSO are added at concentrations of 0-0.001-0.010-0.1-1-10-50 μM for a final constant amount of DMSO of 0.3%. The cultures are maintained for a further 72 hours and an MTT colorimetric test is then performed. 100 μl of a solution of MTT at 5 mg/ml in PBS are added to the culture medium, which is left to incubate for 3 hours. The culture medium is removed and the cells are lyzed by adding 100 μL of a 4 mM HCl solvent, 0.1% Nondet P-40 (NP40) in isopropanol. The yellow tetrazolium MTT salt (3-(4,5-dimethylthiazol-2-yl)-2,5-diphenyl tetrazolium bromide), when it is reduced by the mitochondrial succinate dehydrogenase of active live cells, forms a blue-violet formazan product. The medium then changes from yellow to blue-violet. The intensity of this coloration at 590 nm is proportional to the number of live cells present during the test and gives an indication of the metabolic activity of these cells.
(§6) Table 1 gives the concentration values for 50% inhibition of proliferation (IC50) for compounds 4.2a and 5.6d on lines derived from bowel cancer (CaCo2), skin cancer (A431, MDAMB-435, B16F10), breast cancer (MDAMB-431), […] (HuH7), prostate cancer (DU145) and brain cancer (SNB75, Gli4, Gli7).

CaCo2 = assay: MTT antiproliferative test, CaCo2; assay type: cell-based; conditions: Homo sapiens, Caco-2, read-out: IC50, inhibition of proliferation
Experimental: as §5, §6

MDAMB-231 = assay: MTT antiproliferative test, MDAMB-231; assay type: cell-based; conditions: Homo sapiens, MDA-MB-231, read-out: IC50, inhibition of proliferation
Experimental: as §5, §6

MDAMB-435 melanoma line = assay: MTT antiproliferative test, MDAMB-435; assay type: cell-based; conditions: Homo sapiens, MDA-MB-435, 72 hours, read-out: IC50, inhibition of proliferation
Experimental: as §5, §6

HuH7 = assay: MTT antiproliferative test, HuH7; assay type: cell-based; conditions: Homo sapiens, Huh-7, read-out: IC50, inhibition of proliferation
Experimental: as §5, §6

B16F10 = assay: MTT antiproliferative test, B16F10; assay type: cell-based; conditions: Mus musculus, B16-F10, read-out: IC50, inhibition of proliferation
Experimental: as §5, §6

DU145 = assay: MTT antiproliferative test, DU145; assay type: cell-based; conditions: Homo sapiens, DU-145, read-out: IC50, inhibition of proliferation
Experimental: as §5, §6

C6 glioblastoma line = assay: MTT antiproliferative test, C6; assay type: cell-based; conditions: Rattus norvegicus, read-out: IC50, inhibition of proliferation
Experimental: (§7) Several cancer cell lines were used for the in vivo or in vitro biological tests: • SNB75 is a human glioblastoma line derived from a primary culture, i.e. derived from a primary malignant cancer tumor. It forms part of the panel of 59 cancer lines referenced by the NCI. Its Cosmic reference number published by the Welcome Trust Sanger Institute is 905982. This line was supplied by a person (M.D. Ph.D of the department of “Radiation Oncology”, Stanford University Medical Center). It was cultured in Ham's F-12 and DMEM (1/1) supplemented with 10% fetal bovine serum. The experiments were performed with cells in the exponential growth phase. • Gli4 (or Gli4F11) and Gli7 are cultures of cancer strain cells derived from human glioblastomas (primary cultures). These lines are CD133^+, CD15^+ which are multipotent and tumorigenic in animals. They were established by J. P. Hugnot (INM INSERM U-1051 Eq. 4), and described in Guichet, P. O. et al, Glia 2013, 61(2), 225-239; • C6 is a rat glioblastoma line. It is referenced in the ATCC under the reference CCL-107. • MDAMB-435 is a melanoma line derived from a mammary melanoma. It forms part of the panel of 59 cancer lines referenced by the NCI. It is referenced at the ATCC under the reference HTB-129. It was cultured in Ham's F-12 and DMEM (1/1) supplemented with 10% fetal bovine serum. […]

SNB75 glioblastoma line = assay: MTT antiproliferative test, SNB75; assay type: cell-based; conditions: Homo sapiens, SNB-75, read-out: IC50, inhibition of proliferation
Experimental: as §7

GLi4 = assay: MTT antiproliferative test, Gli4; assay type: cell-based; conditions: Homo sapiens, read-out: IC50, inhibition of proliferation
Experimental: as §7

Gli7 = assay: MTT antiproliferative test, Gli7; assay type: cell-based; conditions: Homo sapiens, read-out: IC50, inhibition of proliferation
Experimental: as §7

[2] = test system: epidermoid cancer line A431; assay: Boyden chamber migration test, A431; assay type: cell-based, human; conditions: for Ki: 24 hours, read-out: Inhibition constant Ki, migration
Experimental: as §1, §2, §3, §4

[3] = 10 and 5 mg/kg i.v. (groups B and C), three injections per week for four weeks

Structure (SMILES): O=[P@@]1(c2ccccc2)O[C@H](COCc2ccccc2)[C@@H](OCc2ccccc2)[C@H](OCc2ccccc2)[C@H]1O [Compound 3.48a, 4,5-bis-benzyloxy-6-benzyloxymethyl-2-phenyl-2-oxo-2λ^5-[1,2]oxaphosphinan-3-ol]
- IC50 (SNB75 human GBM line; Homo sapiens, SNB-75, SNB75 line, on fibronectin or vitronectin, read-out: Concentration for a 50% decrease in migration of the cancer cells): 1 to 100 nM
- Ki (SNB75 human GBM line; support Fibronectin): 27 nM
- Ki (SNB75 human GBM line; support Laminin): 23000 nM
- Ki (SNB75 human GBM line; support Vitronectin): 87 nM
- Ki (Gli4 GBM stem cells; support Fibronectin): 1 nM
- Ki (Gli4 GBM stem cells; support Laminin): 11 nM
- Ki (Gli4 GBM stem cells; support Vitronectin): 5 nM
- Ki (Gli7 GBM stem cells; support Fibronectin): 37 nM
- Ki (Gli7 GBM stem cells; support Laminin): 310 nM
- Ki (Gli7 GBM stem cells; support Vitronectin): 371 nM
- Inhibition of cell migration (GBM line C6): inhibits the cell migration
- Mortality, acute toxicity (Acute in vivo toxicity): No mortality was observed
- Mortality (SNB75 cells; [3]): none of the mice died
- Weight loss (SNB75 cells; [3]): no weight loss was observed
- Growth of the primary tumor (SNB75 cells; 10 and 5 mg/kg i.v. (groups B and C), three injections per week, after four weeks, vs control groups): a very great reduction in the growth of the primary tumor
- Development of metastases (SNB75 cells; 10 and 5 mg/kg i.v. (groups B and C), controls all developed metastases in liver and intestine): None of the mice treated with compound 3.48a (groups B and C) developed metastases
- Metastases in the liver (FIG. 1A) (SNB75 cells; a mouse from group B (10 mg/kg), eight weeks after implantation): absence of metastases in the liver
- Cell migration in brain during treatment (Gli4 cells; 10 mg/kg, three injections per week, four-week treatment (formulation 1)): made it possible to inhibit cell migration
- Cell growth and migration after stopping the treatment (Gli4 cells; final six weeks after the four-week treatment at 10 mg/kg): resumption of the growth and migration of the cells was observed
- Complexation in cyclodextrins [1]: non-complexible in cyclodextrins
- Solubility ([1]; water, water-soluble solvents): insoluble in water, in numerous water-soluble solvents

- IC50 (A431 line; A431 line (human epidermoid cancer)): 100 nM
- IC50 (A431 line; Homo sapiens, A431, 72 hours, MTT): 130 nM
- IC50 (CaCo2): 36000 nM
- IC50 (MDAMB-231): 23200 nM
- IC50 (MDAMB-435 melanoma line): 9610 nM
- IC50 (HuH7): 22000 nM
- IC50 (B16F10): 14900 nM
- IC50 (DU145): 31200 nM
- IC50 (C6 glioblastoma line): 650 nM
- IC50 (SNB75 glioblastoma line): 650 nM
- IC50 ([2]; Homo sapiens, A-431, on fibronectin or vitronectin, read-out: Concentration for a 50% decrease in migration of the cancer cells): 10 to 100 nM
- Ki ([2]; support Fibronectin): 8 nM
- Ki ([2]; support Laminin): 13 nM
- Ki ([2]; support Vitronectin): 20 nM
Structure (SMILES): CC(=O)N[C@@H]1[C@H]2OC(C)(C)O[C@H]2[C@@H]([C@H]2COC(C)(C)O2)O[P@@]1(=O)c1ccccc1 [Compound 5.6d]
- IC50 (GLi4): 540 nM
- IC50 (Gli7): 500 nM

Structure (SMILES): Cn1nnc2c(C(N)=O)ncn2c1=O [temozolomide, reference compound]
- Weight loss (SNB75 cells; 20 mg/kg i.v. (group D), remaining four mice): substantial weight losses
- Mortality (SNB75 cells; 20 mg/kg i.v. (group D), seven mice): three of the seven mice died after the third injection
- Lethality at higher dose (SNB75 cells; dose of 40 mg/kg): leads to the death of the mice before the end of the experimentation period
